18 compounds from ChEMBL document CHEMBL1765090, “Design and evaluation of fragment-like estrogen receptor tetrahydroisoquinoline ligands from a scaffold-detection approach” (J Med Chem, 2011) can be followed below.

Test [1] deals with T1, Estrogen receptor (Homo sapiens, UniProt P03372).
T1 sequence (P03372 whole entry): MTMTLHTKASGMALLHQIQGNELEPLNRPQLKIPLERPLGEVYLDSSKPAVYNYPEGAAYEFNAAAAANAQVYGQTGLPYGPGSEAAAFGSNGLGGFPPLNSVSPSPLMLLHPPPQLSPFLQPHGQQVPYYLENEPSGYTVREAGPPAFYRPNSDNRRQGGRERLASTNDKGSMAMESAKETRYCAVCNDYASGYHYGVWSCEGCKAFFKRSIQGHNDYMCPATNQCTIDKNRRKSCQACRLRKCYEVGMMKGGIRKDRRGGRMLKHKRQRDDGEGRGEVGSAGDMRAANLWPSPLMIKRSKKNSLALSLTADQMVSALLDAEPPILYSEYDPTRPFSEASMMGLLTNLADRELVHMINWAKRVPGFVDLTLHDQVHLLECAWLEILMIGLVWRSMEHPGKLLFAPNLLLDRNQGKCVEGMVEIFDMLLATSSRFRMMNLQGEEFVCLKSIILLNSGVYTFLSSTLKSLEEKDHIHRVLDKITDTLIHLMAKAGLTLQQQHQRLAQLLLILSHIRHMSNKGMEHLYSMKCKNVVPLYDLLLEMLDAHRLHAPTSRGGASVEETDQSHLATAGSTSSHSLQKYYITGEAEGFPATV
Description: (§1) Agonist activity at human N-terminal His6-tagged ERalpha receptor LBD expressed in Escherichia coli BL21 (DE3) assessed as induction of SRC1 peptide recruitment after 1 hr by fluorescence polarization assay

The target in test [2] is T2, Estrogen receptor beta (Homo sapiens, UniProt Q92731).
T2 sequence (Q92731 whole entry): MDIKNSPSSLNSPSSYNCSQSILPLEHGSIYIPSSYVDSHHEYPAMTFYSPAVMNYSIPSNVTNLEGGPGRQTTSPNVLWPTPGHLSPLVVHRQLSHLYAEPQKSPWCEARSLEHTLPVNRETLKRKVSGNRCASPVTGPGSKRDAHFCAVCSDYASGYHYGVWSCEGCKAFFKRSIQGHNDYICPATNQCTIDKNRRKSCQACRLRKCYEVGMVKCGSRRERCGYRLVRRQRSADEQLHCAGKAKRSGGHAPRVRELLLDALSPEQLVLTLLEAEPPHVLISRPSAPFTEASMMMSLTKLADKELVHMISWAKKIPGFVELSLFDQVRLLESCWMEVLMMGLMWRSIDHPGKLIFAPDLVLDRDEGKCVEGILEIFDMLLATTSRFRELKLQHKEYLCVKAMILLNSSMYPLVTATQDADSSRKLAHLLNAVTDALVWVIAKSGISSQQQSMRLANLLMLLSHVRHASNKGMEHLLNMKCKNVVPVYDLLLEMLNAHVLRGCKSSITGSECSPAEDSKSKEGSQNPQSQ
Description: (§2) Agonist activity at human N-terminal His6-tagged ERbeta receptor LBD expressed in Escherichia coli BL21 (DE3) assessed as induction of SRC1 peptide recruitment after 1 hr by fluorescence polarization assay
For test [3], the target named is T1, Estrogen receptor. The source holds these as a separate data set.
Description: as §1
In test [4] the target is T2, Estrogen receptor beta. This is another data set of the same source.
Description: as §2
For test [5], the target named is T3, Estrogen receptor (Homo sapiens) (UniProt P03372).
T3 sequence (whole entry): T1 sequence (P03372 whole entry)
The test is described as follows: Transcriptional activation of human ERalpha receptor transfected in human U2OS cells assessed as increase of luciferase activity by estrogen response element-luciferase reporter gene assay relative to control. The test is classed as cell-based.

For test [6], the target named is T2, Estrogen receptor beta. The test can be described thus: Transcriptional activation of human ERbeta receptor transfected in human U2OS cells assessed as increase of luciferase activity by estrogen response element-luciferase reporter gene assay relative to control. The class given is cell-based.
The target in test [7] is T1, Estrogen receptor. The test is described as follows: Transcriptional activation of human ERalpha receptor transfected in human U2OS cells assessed as increase of luciferase activity by estrogen response element-luciferase reporter gene assay. The class given is cell-based.
The target of test [8] is T2, Estrogen receptor beta. The test is described as follows: Transcriptional activation of human ERbeta receptor transfected in human U2OS cells assessed as increase of luciferase activity by estrogen response element-luciferase reporter gene assay. The test is classed as cell-based. For orientation: Reporter assays use an easily measured gene product as a stand-in for the process of interest.

With `O=C(N1CCc2ccccc2C1)C(F)(F)F`, the EC50 entry in test [1] and in test [2] was “Not Active” each time.
For `CS(=O)(=O)N1CCc2cc(O)ccc2C1`, the concentration giving a half-maximal response (EC50) was 170 µM in test [3] and 20 µM in test [4].
For `CC(=O)N1CCc2ccccc2C1`, the EC50 result in test [1] and in test [2] was “Not Active” in each case.
On to `CC(=O)N1CCc2cc(O)ccc2C1`, for which the EC50 result in test [1] and in test [2] was “Not Active” each time.
With `Br.Oc1ccc2c(c1)CNCC2`, the EC50 entry in test [1] was “Not Active”.
In the case of `Br.Oc1cc2c(cc1O)CNCC2`, the 50% effective concentration (EC50) entry in test [1] is on record as “Not Active”.
Regarding `O=S(=O)(c1cccc2ccccc12)N1CCc2ccc(O)cc2C1`, the EC50 in test [3] was 600 µM; in test [4], 30 µM.
In the case of `O=S(=O)(N1CCc2cc(O)ccc2C1)C(F)(F)F`, the fold change (FC) in test [5] amounted to 33; in test [6], 7. Besides, the concentration for a half-maximal effect (EC50) is 1.87 µM in test [7], 0.31 µM in test [8], 3 µM in test [3] and 0.6 µM in test [4].
On to `O=S(=O)(c1ccccc1)N1CCc2cc(O)ccc2C1`, for which the EC50 in test [4] was 1 µM.
Regarding `O=C(N1CCc2cc(O)ccc2C1)C(F)(F)Cl`, the EC50 in test [3] came to 2.3 µM; in test [4], 1.6 µM.
The matching figures for `O=C(N1CCc2ccc(O)cc2C1)C(F)(F)F`: 20 µM and 3.8 µM.
In the case of `O=S(=O)(c1cccc2ccccc12)N1CCc2cc(O)ccc2C1`, the EC50 in test [3] came to 700 µM; in test [4], 60 µM.
Turning to `O=C(N1CCc2cc(O)ccc2C1)C(Cl)(Cl)Cl`, the concentration giving a half-maximal response (EC50) in test [3] amounted to 6.2 µM; in test [4], 3.2 µM.
As for `CC(C)(C)OC(=O)N1CCc2cc(O)ccc2C1`, the midpoint of the response in test [4], the EC50, lay at 1.1 µM.
With `O=C(N1CCc2cc(O)ccc2C1)C(F)(F)F`, the values for the EC50 in test [3] and in test [4] were 5.2 µM and 0.9 µM, respectively.
Consider `CS(=O)(=O)N1CCc2ccccc2C1`, for which the EC50 entry in test [1] and in test [2] was “Not Active” throughout.
Regarding `Br.Oc1ccc2c(c1)CCNC2`, the EC50 result in test [1] is “Not Active”.
`COc1ccc2c(c1)CCN(C(=O)C(F)(F)F)C2`: the EC50 amounted to 340 µM in test [3] and 227 µM in test [4].

The EC50 is the midpoint of the concentration-response curve.
